The text below walks through data of ChEMBL document CHEMBL1201862, “PubChem BioAssay data set” (2004).

Molecules are shown by their SMILES. The source made the active and inactive calls. Bounds are passed on as bounds.

One test has as its target Paired box protein Pax-8 (Homo sapiens, UniProt Q06710). The experiment in a line: PAX8 transcriptional activity inhibition in RMG-I – RMG-I cells, luciferase, cherry-pick, dose response (AID 687027).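 Note: luciferase reporter driven by Pax8 target thyroperoxidase promoter measured by SteadyGlo luminescence.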 The format is functional, cell-based.
A short description of test [1]: IGROV1 cell killing – plate reader, dry powder samples, PAX8 inhibitor project, dose response (AID 743043). It is filed as functional, cell-based. The conditions noted are these: IGROV-1.
The nature of test [2]: general mammalian cell viability loss – activator set, cherry-pick, cytotoxicity control for miR-122 modulator project, dose response (AID 720690).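 Note: HEK293T human cells scored for general mammalian cytotoxicity.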 It is filed as functional, cell-based.
Test [3] can be described thus: OVCAR8 cell viability loss – plate reader, dry powder samples, PAX8 project, dose response (AID 743197). The format is functional, cell-based. The conditions noted are these: OVCAR-8.
Test [4] in a line: A2780 cell killing – plate reader, dry powder samples, cytotoxicity control, dose response (AID 743046). It is filed as functional, cell-based.
Test [5] is described as follows: OVCAR-3 cell viability loss – plate reader, dry powder samples, PAX8 inhibitor project, dose response (AID 743044). It is filed as functional, cell-based.
The target in test [6] is NAD-dependent protein deacylase sirtuin-5, mitochondrial (Homo sapiens, UniProt Q9NXA8). The experiment in a line: sirtuin-5 deacylation blockers, concentration series – biochemical, fluorescence imaging, cherry-pick, set 5, dose response (AID 720591).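 Note: desuccinylation of succinyl peptide AMC substrate read as fluorescence after trypsin release; potency of inhibitors that lower fluorescence and may act on trypsin instead.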
NAD-dependent protein deacylase sirtuin-5, mitochondrial, sequence (Q9NXA8 whole entry): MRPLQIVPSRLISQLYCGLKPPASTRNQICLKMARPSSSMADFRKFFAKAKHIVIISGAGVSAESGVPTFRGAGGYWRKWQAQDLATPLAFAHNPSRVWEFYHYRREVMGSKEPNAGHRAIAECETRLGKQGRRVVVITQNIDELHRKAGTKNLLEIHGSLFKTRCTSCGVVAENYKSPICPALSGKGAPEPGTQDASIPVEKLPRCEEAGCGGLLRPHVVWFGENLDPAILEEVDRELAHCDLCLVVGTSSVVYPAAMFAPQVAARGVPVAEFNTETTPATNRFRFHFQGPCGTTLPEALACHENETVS
The nature of test [7]: general cell-killing toxicity readout – plate reader, dry powder samples, cytotoxicity control for PAX8 inhibitor project, dose response (AID 743021). The format is functional, cell-based.
Test [8] deals with T1, Oxysterols receptor LXR-beta (Homo sapiens, UniProt P55055).
T1 sequence (P55055 whole entry): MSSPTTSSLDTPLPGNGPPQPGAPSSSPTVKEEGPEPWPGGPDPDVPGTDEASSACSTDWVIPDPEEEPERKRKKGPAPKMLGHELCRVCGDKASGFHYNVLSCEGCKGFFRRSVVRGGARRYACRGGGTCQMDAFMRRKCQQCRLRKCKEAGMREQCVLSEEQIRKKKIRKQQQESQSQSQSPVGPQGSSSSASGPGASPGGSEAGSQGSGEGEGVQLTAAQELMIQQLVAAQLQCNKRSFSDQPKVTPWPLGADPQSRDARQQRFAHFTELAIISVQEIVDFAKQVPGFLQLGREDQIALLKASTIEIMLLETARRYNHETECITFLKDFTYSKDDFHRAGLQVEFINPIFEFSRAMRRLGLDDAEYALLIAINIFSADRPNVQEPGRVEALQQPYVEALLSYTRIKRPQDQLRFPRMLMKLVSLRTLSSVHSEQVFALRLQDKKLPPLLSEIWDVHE
The format is functional, cell-based.

The target in test [9] is COUP transcription factor 2 (Homo sapiens, UniProt P24468). The experiment in a line: Luminescence-based cell-based high throughput dose response assay to identify inhibitors of COUP-TFII (NR2F2). It is filed as functional.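 Note: HEK293 cells transiently cotransfected with COUP-TFII expression vector and reporter; luciferase reporter luminescence driven by COUP-TFII from the pX2-168 reporter plasmid.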
COUP transcription factor 2, sequence (P24468 whole entry): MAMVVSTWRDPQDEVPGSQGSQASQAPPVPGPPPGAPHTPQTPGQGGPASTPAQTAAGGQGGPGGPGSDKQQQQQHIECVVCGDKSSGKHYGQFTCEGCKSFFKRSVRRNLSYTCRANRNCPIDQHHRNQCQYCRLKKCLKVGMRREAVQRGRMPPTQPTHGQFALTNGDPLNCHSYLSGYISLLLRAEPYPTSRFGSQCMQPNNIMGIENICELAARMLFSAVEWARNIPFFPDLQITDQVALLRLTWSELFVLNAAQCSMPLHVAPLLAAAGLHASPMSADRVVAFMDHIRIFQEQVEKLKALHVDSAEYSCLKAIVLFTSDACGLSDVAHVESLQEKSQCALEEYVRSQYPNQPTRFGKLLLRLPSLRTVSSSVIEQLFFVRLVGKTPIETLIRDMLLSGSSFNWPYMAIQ
For another test, the target named is T2, Protein skinhead-1 (Caenorhabditis elegans, UniProt P34707).
T2 sequence (P34707 whole entry): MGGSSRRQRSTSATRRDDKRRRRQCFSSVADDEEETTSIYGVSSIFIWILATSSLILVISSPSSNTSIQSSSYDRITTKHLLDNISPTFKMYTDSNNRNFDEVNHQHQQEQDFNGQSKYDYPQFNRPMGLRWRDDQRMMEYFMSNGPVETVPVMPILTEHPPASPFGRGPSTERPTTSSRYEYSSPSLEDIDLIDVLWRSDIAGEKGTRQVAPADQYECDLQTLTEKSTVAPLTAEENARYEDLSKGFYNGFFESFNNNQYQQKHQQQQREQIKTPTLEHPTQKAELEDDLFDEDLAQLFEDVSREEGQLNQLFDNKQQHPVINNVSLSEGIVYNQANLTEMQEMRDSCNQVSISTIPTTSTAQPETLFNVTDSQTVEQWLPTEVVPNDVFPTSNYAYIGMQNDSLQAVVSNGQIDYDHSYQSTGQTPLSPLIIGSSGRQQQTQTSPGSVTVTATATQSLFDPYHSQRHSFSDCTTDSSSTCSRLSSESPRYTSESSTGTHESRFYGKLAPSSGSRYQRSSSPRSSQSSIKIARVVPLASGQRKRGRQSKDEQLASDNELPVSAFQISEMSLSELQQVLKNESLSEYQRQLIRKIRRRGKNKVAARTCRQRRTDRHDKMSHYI
It is filed as functional.

Test [10] can be described thus: potency of ADAM10 substrate cleavage blockers – biochemical, QFRET, dose response (AID 743254).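 Note: ADAM10 enzyme with the DM2 quenched FRET peptide as substrate; EDANS fluorescence gain as the protease cuts the substrate; inhibitor potency against ADAM10 proteolytic activity.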
In test [11] the target is Disintegrin and metalloproteinase domain-containing protein 17 (Homo sapiens, UniProt P78536). The experiment in a line: inhibition of ADAM17 substrate cleavage – biochemical, quenched FRET substrate, counter-screen for ADAM10 exosite inhibitor project, dose response (AID 743253). A general note: The purpose of a counterscreen is to sort out artefacts and off-target activity.
Disintegrin and metalloproteinase domain-containing protein 17, sequence (P78536 whole entry, the tested form may be a part): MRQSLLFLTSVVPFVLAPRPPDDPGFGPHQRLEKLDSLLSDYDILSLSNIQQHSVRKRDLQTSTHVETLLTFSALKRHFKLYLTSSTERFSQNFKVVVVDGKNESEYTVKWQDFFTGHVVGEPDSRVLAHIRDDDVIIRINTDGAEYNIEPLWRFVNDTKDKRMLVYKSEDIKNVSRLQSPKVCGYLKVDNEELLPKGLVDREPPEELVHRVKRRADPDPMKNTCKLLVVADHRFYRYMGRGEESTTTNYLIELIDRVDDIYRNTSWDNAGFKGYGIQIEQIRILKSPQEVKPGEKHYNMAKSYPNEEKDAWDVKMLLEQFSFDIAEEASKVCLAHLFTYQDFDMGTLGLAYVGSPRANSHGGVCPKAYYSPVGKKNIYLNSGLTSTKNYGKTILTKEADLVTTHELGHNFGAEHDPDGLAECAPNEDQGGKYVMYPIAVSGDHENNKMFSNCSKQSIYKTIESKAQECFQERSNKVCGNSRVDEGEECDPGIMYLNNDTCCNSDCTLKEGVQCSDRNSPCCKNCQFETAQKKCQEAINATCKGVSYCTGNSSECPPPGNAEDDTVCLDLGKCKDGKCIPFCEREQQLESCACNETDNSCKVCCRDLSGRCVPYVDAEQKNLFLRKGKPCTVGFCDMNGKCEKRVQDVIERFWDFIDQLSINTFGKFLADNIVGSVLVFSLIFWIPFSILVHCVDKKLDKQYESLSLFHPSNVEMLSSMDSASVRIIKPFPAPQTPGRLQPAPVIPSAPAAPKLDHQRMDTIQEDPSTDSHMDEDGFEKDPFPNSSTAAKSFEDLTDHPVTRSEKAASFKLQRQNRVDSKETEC

A short description of test [12]: non-specific 3'UTR reporter inhibition in Clone20-Shn3RL – cell-based, Renilla luciferase, cherry-picked, counter-screen for Shn3 inhibitor project, dose response (AID 624133). The format is functional.
Test [13] can be described thus: loss of viability in HepG2 cells – cell-based, CellTiter-Glo, cherry-picked, cytotoxicity control for Shn3 inhibitor project, dose response (AID 624134). It is filed as functional.
Test [14] in a line: Luminescence Cell-Based Dose Retest to Confirm Inhibitors of Cancer Stem Cells. [Related pubchem assays (depositor defined):AID2717, AID2721]. Particulars: Homo sapiens. It is filed as functional.
Test [15] can be described thus: reduction of Shn3 3'UTR-driven luciferase in osteoblasts – cell-based, Clone20 osteoblasts, firefly luciferase, cherry-picked, dose response (AID 624132).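 Note: firefly luciferase luminescence from reporter carrying the Shn3 3'UTR in osteoblasts.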 The format is functional.
Test [16] addresses T1, Oxysterols receptor LXR-beta. It is filed as functional, cell-based. The source holds these as a separate data set.
A short description of test [17]: anti-trypanosomal activity in BESM host cells – imaging, CA-I/72 strain, bovine embryo skeletal muscle, dry powder, dose response (AID 651885). The format is functional, cell-based.
The target of test [18] is Endoplasmic reticulum aminopeptidase 1 (Homo sapiens, UniProt Q9NZ08). The experiment in a line: inhibition of human ERAP1 enzyme activity – biochemical, cherry-pick, set 2, plate reader, dose response (AID 743314).
Endoplasmic reticulum aminopeptidase 1, sequence (Q9NZ08 whole entry): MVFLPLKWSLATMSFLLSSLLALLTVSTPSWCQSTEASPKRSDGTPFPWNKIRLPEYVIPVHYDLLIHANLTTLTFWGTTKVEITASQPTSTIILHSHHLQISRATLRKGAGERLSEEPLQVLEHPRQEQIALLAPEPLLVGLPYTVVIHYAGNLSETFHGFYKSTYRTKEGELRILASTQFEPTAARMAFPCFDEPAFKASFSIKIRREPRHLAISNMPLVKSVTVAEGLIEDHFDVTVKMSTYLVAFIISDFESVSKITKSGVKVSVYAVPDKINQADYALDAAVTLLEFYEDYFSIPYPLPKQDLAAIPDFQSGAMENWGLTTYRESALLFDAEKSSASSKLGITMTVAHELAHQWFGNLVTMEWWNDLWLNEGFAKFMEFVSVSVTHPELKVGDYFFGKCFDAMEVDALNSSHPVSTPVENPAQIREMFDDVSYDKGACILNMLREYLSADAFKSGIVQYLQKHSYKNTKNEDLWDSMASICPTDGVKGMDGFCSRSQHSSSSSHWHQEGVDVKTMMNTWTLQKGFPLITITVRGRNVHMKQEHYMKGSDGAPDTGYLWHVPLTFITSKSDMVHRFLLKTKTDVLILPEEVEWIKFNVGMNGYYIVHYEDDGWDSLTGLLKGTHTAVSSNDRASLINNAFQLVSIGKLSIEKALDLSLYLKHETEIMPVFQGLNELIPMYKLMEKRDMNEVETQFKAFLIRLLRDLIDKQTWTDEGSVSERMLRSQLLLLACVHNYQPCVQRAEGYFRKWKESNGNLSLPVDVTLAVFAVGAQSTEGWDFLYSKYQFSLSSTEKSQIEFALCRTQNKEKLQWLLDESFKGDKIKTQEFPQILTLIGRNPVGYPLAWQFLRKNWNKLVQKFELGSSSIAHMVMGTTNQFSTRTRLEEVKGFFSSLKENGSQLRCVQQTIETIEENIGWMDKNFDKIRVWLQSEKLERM
Test [19] concerns the target T3, Latent membrane protein 1 (Human herpesvirus 4 (strain B95-8), UniProt P03230).
T3 sequence (P03230 whole entry): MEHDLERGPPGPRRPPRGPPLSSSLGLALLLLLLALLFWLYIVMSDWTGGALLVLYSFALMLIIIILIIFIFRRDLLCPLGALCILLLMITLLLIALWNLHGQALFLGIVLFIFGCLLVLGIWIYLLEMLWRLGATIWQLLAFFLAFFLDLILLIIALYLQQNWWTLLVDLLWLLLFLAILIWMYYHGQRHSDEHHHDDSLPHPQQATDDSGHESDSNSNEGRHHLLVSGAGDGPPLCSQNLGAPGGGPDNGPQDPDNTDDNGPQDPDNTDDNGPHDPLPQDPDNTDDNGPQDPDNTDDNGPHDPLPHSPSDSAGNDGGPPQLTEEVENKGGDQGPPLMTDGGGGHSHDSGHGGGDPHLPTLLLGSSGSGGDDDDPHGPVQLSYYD
The experiment in a line: LMP1 TES1 pathway selectivity over dsRED control – imaging, HEK293T, dual-color eGFP/dsRED, cherry-picks, selectivity assay for LMP1 NF-kB inhibitor project, dose response (AID 588398). It is filed as functional, cell-based.

The next test has as its system HEK293. The experiment in a line: EBV LMP1 TES2 canonical NF-kB signalling blockers – cell-based, HEK293, luciferase, cherry-pick, dose response (AID 588343). Particulars: Homo sapiens. It is filed as functional.

Broadly, the AC50 is the concentration at which the activity in the assay is half-maximal. As a reminder, the EC50 is the concentration at which the effect is half-maximal. As a reminder, the IC50 is the point on the concentration scale where inhibition reaches its midpoint.

Paired box protein Pax-8, sequence (Q06710 whole entry): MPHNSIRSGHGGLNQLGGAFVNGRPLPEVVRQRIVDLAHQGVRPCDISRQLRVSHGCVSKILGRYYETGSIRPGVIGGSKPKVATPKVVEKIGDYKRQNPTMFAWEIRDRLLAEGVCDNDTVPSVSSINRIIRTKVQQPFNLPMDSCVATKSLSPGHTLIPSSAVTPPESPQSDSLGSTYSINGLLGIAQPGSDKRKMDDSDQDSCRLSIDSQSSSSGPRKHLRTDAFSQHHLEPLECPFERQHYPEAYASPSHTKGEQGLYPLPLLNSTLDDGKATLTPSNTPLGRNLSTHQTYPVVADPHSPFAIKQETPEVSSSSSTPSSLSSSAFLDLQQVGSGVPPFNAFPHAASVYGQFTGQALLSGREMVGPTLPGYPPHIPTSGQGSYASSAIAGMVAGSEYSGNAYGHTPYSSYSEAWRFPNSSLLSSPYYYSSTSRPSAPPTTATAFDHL

For the compound `C[C@@H]1CN([C@@H](C)CO)S(=O)(=O)c2ccc(C#Cc3ccccc3F)cc2O[C@H]1CN(C)C(=O)c1ccc2c(c1)OCO2`, the AC50 at Paired box protein Pax-8 is 4.88 µM (active); in test [1], 28.5 µM (active); in test [2], 5.74 µM (active); in [3] it was 17.7 µM (active); in test [4] it was 0.765 µM (active); in test [5], 6.2 µM (active).
Turning to `CC(C)CCN1C(=O)c2ccccc2C1c1nnnn1-c1ccc2c(c1)OCCO2` (stereo unspecified), the AC50 in [6] was > 30 µM (inactive).
Consider `C[C@H](CO)N1C[C@H](C)[C@H](CN(C)Cc2ccc3c(c2)OCO3)OCCCC[C@H](C)Oc2ccc(NC(=O)Nc3ccc(C(F)(F)F)cc3)cc2C1=O`, for which the AC50 is 9.15 µM (active) at Paired box protein Pax-8 and 46.4 µM (active) in test [7].
With `CC1=NN(C(N)=S)C(=O)C1N=Nc1ccc(Br)cc1` (stereo unspecified), the EC50 (in [8]; in the test “cells”) was > 67.6 µM (inactive) in each case.
For the compound `Cc1ccc(F)cc1NC(=O)Cc1nn(C)c(=O)c2ccccc12`, the results for the IC50 (in test [9]; on Protein skinhead-1) were 12.7 µM (inactive) and > 100 µM (inactive), respectively.
For the compound `O=c1c2ccccc2cnn1-c1ccc(Br)cc1`, the EC50 (in test [8]; in the test “cells”) was > 67.5 µM (inactive) throughout.
`CCCOc1ccc(NC(=O)CC2C(=O)N(Cc3ccccc3)C(=S)N2Cc2cccs2)cc1` (stereo unspecified): the IC50 in [10] was 44.4 µM (inactive); in test [11] it was > 69.6 µM (inactive).
`C=CCC[C@H](Cc1ccc(F)cc1)C(=O)OC[C@@H](Cc1c[nH]c2ccccc12)NC(=O)[C@H](CC=C)CC(=O)N(CCO)Cc1ccccc1`: the AC50 was 29 µM (active) in test [12], 30.9 µM (active) in [13], 3.42 µM (active) in [14] and 8.66 µM (active) in [15]. Moreover, the values for the IC50 in test [10] and in test [11] were > 7.72 µM (active) and > 69.5 µM (inactive), respectively.
`COCCNC(=O)/C(C#N)=C/c1cc(C)n(-c2ccc(C)cc2)c1C`: the EC50 in [16] is > 67.5 µM (inactive).
For the compound `C/C(=N\NC(=O)OC(C)(C)C)c1ccc[nH]1`, in test [16], the EC50 is > 67.6 µM (inactive).
In the case of `C[C@@H]1CN([C@@H](C)CO)C(=O)c2cccc(NC(=O)c3ccncc3)c2O[C@H]1CN(C)Cc1ccncc1`, in test [17], the IC50 is 17.3 µM (inconclusive).
Consider `CCCn1c(SCC(=O)Nc2ccc3c(c2)OCO3)nc2c1c(=O)n(C)c(=O)n2C`, for which, in test [6], the AC50 was > 30 µM (inactive).
Take `Cc1ccccc1-c1ccc([C@@H]2[C@@H]3CN(C(=O)Nc4cccc(F)c4)C[C@H]2N3)cc1`: the half-maximal activity concentration (AC50) was 30.7 µM (active) at Paired box protein Pax-8, 21.8 µM (active) in test [1], 37.4 µM (active) in [5] and 22.9 µM (active) in test [7].
As to `CN1C(=O)c2cc(NC(=O)c3ccc(C(F)(F)F)cc3)ccc2OC[C@@H]2O[C@@H](CC(=O)NCc3ccc4c(c3)OCO4)CC[C@H]21`, the AC50 in test [2] was 20.3 µM (active).
As for `CCc1cc(=O)oc2c(CNCc3c(F)cccc3Cl)c(O)ccc12`, the AC50 in test [18] was 8.53 µM (active); in test [19], 54.9 µM (active); with HEK293 it was 230 µM (active).
As for `O=C(NCCc1ccncc1)[C@@H]1N[C@@H]2c3ccc(/C=C/c4ccccc4)c(=O)n3C[C@@H]2[C@H]1CO`, the concentration at half-maximal activity (AC50) in test [18] is 13 µM (active).
